Laboratory results published in patent publication US20180264094A1, “PERSONALISED IMMUNOGENIC PEPTIDE IDENTIFICATION PLATFORM” (priority 2017, published 2018).
“Also recorded” adds a separate entry of the source. Where no end group is shown, it is not given here.

Key:
[1] = tested on: metastatic ovarian adenocarcinoma; assay: MRI of tumor lesions of patient treated with PIT vaccine (Table 28); format: in vivo, human; conditions: before PIT vaccine
Text: • Disease was confined primarily to liver and lymph nodes. The use of MRI limits detection of lung (pulmonary) metastasis • May 2016-January 2017: Olaparib treatment • Dec. 25, 2016 (before PIT vaccine treatment) There was dramatic reduction in tumor burden with confirmation of response obtained at FU2 • January-March 2017—TOPO protocol (topoisomerase) • Apr. […] 21 2017 START PIT • Jul. […] 26, 2017—CBP+Gem+Avastin • Sep.

T cell responses = conditions: percentage of study subjects with positive T cell responses measured in the clinical trials; cited from earlier work
[2] = in vivo; cited from earlier work
[3] = published Disease Control Rate (ORR where no DCR data), RECIST; cited from earlier work
[4] = tested on: Vaccine antigen specific CTL responses; conditions: published immune response rate (CTL) of the clinical study population; cited from earlier work
[5] = tested on: glioblastoma multiforme (GBM); conditions: cited from earlier work
EGFRvIII = conditions: cited from earlier work
[6] = cited from earlier work

CC[C@@]1(O)C(=O)OCc2c1cc1n(c2=O)Cc2cc3c(CN(C)C)c(O)ccc3nc2-1 [Hycamtin]
Lesion response (% Δ from BL) ([1]; SUM, FU3, after TOPO protocol): −68.9%
Lesion response (% Δ from BL) ([1]; TL1, FU3 (Apr. 6, 2017), after TOPO protocol): −44.8%
Lesion response (% Δ from BL) ([1]; TL2, FU3, after TOPO protocol): −47.1%
Lesion response (% Δ from BL) ([1]; TL3, FU3, after TOPO protocol): −62.0%
Lesion response (% Δ from BL) ([1]; TL4, FU3, after TOPO protocol): −100.0%

O=C(c1cc(Cc2n[nH]c(=O)c3ccccc23)ccc1F)N1CCN(C(=O)C2CC2)CC1 [Olaparib]
Lesion response (% Δ from BL) ([1]; SUM of target lesions, FU1, during Olaparib treatment): −66.3%
Lesion response (% Δ from BL) ([1]; SUM, FU2, Olaparib treatment): −76.0%
Lesion response (% Δ from BL) ([1]; TL1, FU1, patient, MRI, during Olaparib treatment): −56.1%
Lesion response (% Δ from BL) ([1]; TL1, FU2 (Dec. 25, 2016), Olaparib treatment): −44.4%
Lesion response (% Δ from BL) ([1]; TL2, FU1, during Olaparib treatment): −100.0%
Lesion response (% Δ from BL) ([1]; TL2, FU2, Olaparib treatment): −100.0%
Lesion response (% Δ from BL) ([1]; TL3, FU1, during Olaparib treatment): −59.4%
Lesion response (% Δ from BL) ([1]; TL3, FU2, Olaparib treatment): −62.3%
Lesion response (% Δ from BL) ([1]; TL4, FU1, during Olaparib treatment): −65.8%
Lesion response (% Δ from BL) ([1]; TL4, FU2, Olaparib treatment): −100.0%

ALDQCKTSCALMQQHYDQTSCFSSP (additional peptide 7) [25 mer peptide vaccine, source antigen ITGB8]
Response rate (Clinical Trials) (T cell responses): 28%

Abciximab
ADA-related adverse event [2]: anaphylaxis

Adalimumab
ADA-related adverse event [2]: anti-drug antibodies and treatment failure

Basiliximab
ADA-related adverse event [2]: anaphylaxis

Epoetin
ADA-related adverse event [2]: Antibody-mediated pure red cell aplasia

Erythropoietin
ADA-related adverse event [2]: pure red cell aplasia

Etanercept
ADA-related adverse event [2]: no apparent effect on safety

FPPKDDHTLKFLYDDNQRPYPP (additional peptide 4) [22 mer peptide vaccine, source antigen TOP2A]
Response rate (Clinical Trials) (T cell responses): 11%

Factor-IX
ADA-related adverse event [2]: anaphylaxis

GRGSTTTNYLLDRDDYRNTSD (additional peptide 2) [21 mer peptide vaccine, source antigen ADA17]
Response rate (Clinical Trials) (T cell responses): 11%

ImMucin: anti-MUC1 signal peptide vaccine, ref 15; likely the 21 mer MTPGTQSPFFLLLLLTVLTVV
DCR [3]: 73%
Clinical Trial Response Rate [4]: 90%

Infliximab
ADA-related adverse event [2]: anaphylaxis

Ipilimumab
DCR [3]: 60%
Clinical Trial Response Rate [4]: 72%

LEEKKGNYVVTDHC (also: conjugated to KLH) [Rindopepimut, 13-amino-acid peptide vaccine spanning the EGFRvIII mutation with additional C-terminal cysteine]
HR (overall survival) ([5]; Rindopepimut group versus control group, 95% CI 0.79-1.30): 1.01
median overall survival ([5]; phase III, Rindopepimut and temozolomide (n=371)): 20.1 months
Responders (EGFRvIII; Clinical trial (Phase II), cellular immune response by DTH reaction test, EGFRvIII-expressing GBM patients): 3/18
Response rate (EGFRvIII; Clinical trial (Phase II), cellular immune response by DTH reaction test): 16.6%
patients developing cellular immune response assessed by DTH reaction test (EGFRvIII; phase II, peptide conjugated to KLH, intradermal, newly diagnosed EGFRvIII-expressing GBM): 3 out of 18

LKKGAADGGKLDGNAKLNRSLK (additional peptide 3) [22 mer peptide vaccine, source antigen BAP31]
Response rate (Clinical Trials) (T cell responses): 11%

MMNLMQPKTQQTYTYD (additional peptide 1) [16 mer peptide vaccine, source antigen JUP]
Response rate (Clinical Trials) (T cell responses): 0%

MTPGTQSPFFLLLLLTVLTVV (additional peptide 10)
Response rate (Clinical Trials) (T cell responses): 90%

OKT3
ADA-related adverse event [2]: anaphylaxis

Pegloticase
ADA-related adverse event [2]: anti-dug antibody, treatment failure

QRPPFSQLHRFLADALNT (additional peptide 6) [18 mer peptide vaccine, source antigen DDR1]
Response rate (Clinical Trials) (T cell responses): 17%

RYRKPDYTLDDGHGLLRFKST (additional peptide 5) [21 mer peptide vaccine, source antigen Abl-2]
Response rate (Clinical Trials) (T cell responses): 17%

SSKALQRPV (additional peptide 11) [9 mer peptide vaccine, source antigen Bcr-Abl]
Response rate (Clinical Trials) (T cell responses): 0%

Thrombopoietin [TPO]
ADA-related adverse event [2]: thrombocitopenia
most immunogenic region by State of Art class II HLA restricted epitope identification ([6]; EpiVax/Genentech, US20040209324 A1): C-terminal end of TPO
immunotoxic region, experimental proof in published literature ([6]; in vivo): N-terminal end of TPO
immunogenicity / anti-drug antibodies (ADA) ([6]; patients treated with TPO drug): highly immunogenic protein drug causing toxicity in many patients; also recorded: Most individuals treated with TPO drug made anti-drug antibodies (ADA)

Ustekinumab
ADA-related adverse event [2]: anti-ustekinumab antibodies, affected

YLEPGPVTA
Response rate (Clinical Trials) (T cell responses): 28%

recombinant factor VIII
ADA-related adverse event [2]: anaphylaxis
